Source: PMC5506005, “A novel protein kinase inhibitor IMB-YH-8 with anti-tuberculosis activity” (Scientific Reports, 2017)
Converted amounts (≈) assume the structure as drawn. Where two headings read alike, the source gives them in different places.

Tested on: clinical isolates of M. tuberculosis
Test: microbe, parasite or virus in culture
Assay type: cell-based
Settings: Mycobacterium tuberculosis

Work on COC(=O)/C=C/C(=O)c1ccc(OC)cc1 [IMB-YH-8] yielded an MIC (clinical isolate 3303, resistant to INH, STR) of 0.5 µg/mL (≈ 2.27 µM), an MIC (clinical isolate 4201, resistant to RIF) of 0.25 µg/mL (≈ 1.14 µM) and an MIC (clinical isolate 5112, resistant to INH, RIF, STR, EMB) of 0.25 µg/mL (≈ 1.14 µM). The MIC (clinical isolate 5116, resistant to INH, RIF) was 0.25 µg/mL (≈ 1.14 µM), the MIC (clinical isolate 5120, resistant to INH, STR, EMB) was 0.5 µg/mL (≈ 2.27 µM) and the MIC (clinical isolate 6133, resistant to INH, RIF) was 0.25 µg/mL (≈ 1.14 µM). It also gave an MIC (clinical isolate 7153, resistant to INH, RIF) of 1 µg/mL (≈ 4.54 µM), an MIC (clinical isolate 11277, resistant to INH, RIF, STR) of 0.5 µg/mL (≈ 2.27 µM) and an MIC (clinical isolate 12179, resistant to INH, RIF) of 0.25 µg/mL (≈ 1.14 µM). For the same compound, the MIC (clinical isolate 12251, resistant to INH, RIF) was 0.5 µg/mL (≈ 2.27 µM), the MIC (clinical isolate 16559, resistant to STR, OFX) was 0.5 µg/mL (≈ 2.27 µM) and the MIC (clinical isolate 20161, resistant to INH, RIF) was 0.5 µg/mL (≈ 2.27 µM). For the same compound, the MIC (clinical isolate 23120, resistant to INH, RIF, STR) was 0.25 µg/mL (≈ 1.14 µM), the MIC (clinical isolate 23443, resistant to RIF) was 0.5 µg/mL (≈ 2.27 µM) and the MIC (read-out: MICs for drug-resistant isolates) was 0.25 to 1 µg/mL (≈ 1.14 to 4.54 µM).
